Measurements from ChEMBL document CHEMBL1201862, “PubChem BioAssay data set” (2004).
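1) Cells in 96-well plates. 2) Compound, 48 h, 5 concentrations. 3) Linear interpolation between surrounding doses. 4) Unreached endpoint = highest concentration. GI50 = concentration required for 50% inhibition of growth.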 Active and inactive are the calls of the source. Cut-off read from the data, not from the text of the source: active = GI50 up to about 1.1 µM and inactive = higher.

What was measured:
Experiment in all cases: NCI tumour cell line growth inhibition, 48 h
[1] = tested on: SF-539
[2] = tested on: A498
[3] = tested on: MCF7
[4] = tested on: SF-268
[5] = tested on: Malme-3M
[6] = tested on: MDA-MB-435
[7] = tested on: COLO 205
[8] = tested on: UACC-257
[9] = tested on: MDA-MB-231
[10] = tested on: CCRF-CEM
[11] = tested on: SNB-75
[12] = tested on: EKVX
[13] = tested on: SF-295
[14] = tested on: MOLT-4
[15] = tested on: U-251
[16] = tested on: PC-3
[17] = tested on: SK-MEL-2
[18] = tested on: NCI-H522
[19] = tested on: SK-MEL-5
[20] = tested on: SK-MEL-28

Measured: GI50

O=CC(NC(=O)N(CCCl)N=O)C(O)C(O)C(O)CO (stereo not given)
inactive: [1] 119 µM | [2] 1120 µM | [3] 948 µM | [4] 114 µM | [5] 347 µM | [6] 774 µM | [7] > 1250 µM | [8] 1050 µM | [9] > 1100 µM | [10] 348 µM | [11] 262 µM | [12] > 1250 µM | [13] 81.7 µM | [14] 159 µM | [15] 179 µM | [16] > 1250 µM | [17] 718 µM | [18] 1160 µM | [19] 425 µM | [20] 817 µM

CS(=O)(=O)c1ccc(C2=C(c3ccccc3)C(=O)OC2)cc1 [ROFECOXIB]
inactive: [1] > 100 µM | [2] > 100 µM | [3] > 100 µM | [4] > 100 µM | [5] > 100 µM | [6] > 100 µM | [7] > 100 µM | [8] > 100 µM | [9] > 100 µM | [10] > 100 µM | [11] > 100 µM | [12] > 100 µM | [13] > 100 µM | [14] > 100 µM | [15] > 100 µM | [16] > 100 µM | [17] > 100 µM | [18] > 100 µM | [19] > 100 µM | [20] > 100 µM

COC(=O)/C=C(/C(=O)OC)c1c(C)cc2c(C)cc(C)cc(C)c1-2
inactive: [1] 9.12 µM | [2] 26.4 µM | [3] 4.1 µM | [4] 19.1 µM | [5] 11.5 µM | [6] 2.77 µM | [7] 7.24 µM | [8] 19.3 µM | [9] 4.89 µM | [10] 9.18 µM | [11] 16.7 µM | [12] 32.1 µM | [13] 7.24 µM | [14] 5.46 µM | [15] 8.26 µM | [16] 19 µM | [17] 20 µM | [18] 7.48 µM | [19] 8.15 µM | [20] 24.3 µM
